The results in this text go back to patent US20240360113A1, “AMINOARYL-INTEGRIN AGONISTS COMPOUNDS” (Texas Heart Institute, priority 2021, published 2024).

For test [1], the target named is T1, α4β1/VCAM-1 (Homo sapiens, UniProt P05556+P13612).
T1 construct: The Jurkat (VCAM-1 assays) and HSB (ICAM-1 assays) cell lines were obtained from American Type Culture Collection; endogenous in cells; host or cells: Jurkat (ATCC)
Kind of test: Static cell adhesion assay, Jurkat cells on VCAM-1 (VLA-4 agonist activity). It counts as cell-based. The conditions noted are these: EC50 relative to THI0349 (average 11 uM) run on the same plate; Jurkat cells, 50% FBS. In short, it runs like this:
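Calcein-labelled Jurkat cells (2×10^5/well) were added to wells coated with a sub-optimal level of human VCAM-1 (0.5 μg/mL) in PBS, 1 mM MgCl2, 50% FBS with compound in 1% DMSO. After 30 min at 37° C. and washing, adherent-cell fluorescence was read. EC50 was the concentration giving 50% of maximal response.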

In test [2] the target is T2, αLβ2/ICAM-1 (Homo sapiens, UniProt P05107+P20701).
T2 construct: The Jurkat (VCAM-1 assays) and HSB (ICAM-1 assays) cell lines were obtained from American Type Culture Collection; endogenous in cells; host or cells: HSB (ATCC)
T2 sequence (P20701 26-1170): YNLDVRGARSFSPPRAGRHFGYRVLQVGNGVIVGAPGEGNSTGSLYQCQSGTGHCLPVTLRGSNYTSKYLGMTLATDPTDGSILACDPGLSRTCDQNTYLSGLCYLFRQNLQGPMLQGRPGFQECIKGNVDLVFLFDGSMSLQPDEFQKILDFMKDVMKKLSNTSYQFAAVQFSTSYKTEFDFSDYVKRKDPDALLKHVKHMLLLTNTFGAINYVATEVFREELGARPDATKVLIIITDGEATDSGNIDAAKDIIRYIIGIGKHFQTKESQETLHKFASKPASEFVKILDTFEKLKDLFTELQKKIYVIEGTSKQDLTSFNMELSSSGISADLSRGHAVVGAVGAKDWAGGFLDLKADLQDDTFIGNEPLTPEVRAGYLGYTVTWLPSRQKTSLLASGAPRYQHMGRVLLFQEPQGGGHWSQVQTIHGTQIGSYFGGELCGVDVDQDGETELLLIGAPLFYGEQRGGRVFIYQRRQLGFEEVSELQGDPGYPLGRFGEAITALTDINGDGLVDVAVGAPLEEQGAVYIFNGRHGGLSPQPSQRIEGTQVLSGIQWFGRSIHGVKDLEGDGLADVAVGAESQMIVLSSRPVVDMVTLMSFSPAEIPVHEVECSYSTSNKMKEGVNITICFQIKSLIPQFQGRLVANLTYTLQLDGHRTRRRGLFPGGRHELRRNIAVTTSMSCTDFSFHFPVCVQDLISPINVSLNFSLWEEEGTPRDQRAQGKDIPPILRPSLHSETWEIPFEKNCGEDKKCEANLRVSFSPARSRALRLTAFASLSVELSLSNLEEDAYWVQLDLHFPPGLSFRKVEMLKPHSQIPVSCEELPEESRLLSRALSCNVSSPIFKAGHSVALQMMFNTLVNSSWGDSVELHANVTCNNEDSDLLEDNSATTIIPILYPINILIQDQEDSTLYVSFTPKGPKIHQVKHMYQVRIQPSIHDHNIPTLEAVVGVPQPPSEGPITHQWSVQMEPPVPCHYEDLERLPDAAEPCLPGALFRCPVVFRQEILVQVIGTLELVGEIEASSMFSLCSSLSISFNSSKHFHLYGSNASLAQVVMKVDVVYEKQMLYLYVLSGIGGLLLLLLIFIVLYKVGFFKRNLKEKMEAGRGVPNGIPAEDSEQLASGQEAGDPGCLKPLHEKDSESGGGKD
T2 sequence (P05107 23-769): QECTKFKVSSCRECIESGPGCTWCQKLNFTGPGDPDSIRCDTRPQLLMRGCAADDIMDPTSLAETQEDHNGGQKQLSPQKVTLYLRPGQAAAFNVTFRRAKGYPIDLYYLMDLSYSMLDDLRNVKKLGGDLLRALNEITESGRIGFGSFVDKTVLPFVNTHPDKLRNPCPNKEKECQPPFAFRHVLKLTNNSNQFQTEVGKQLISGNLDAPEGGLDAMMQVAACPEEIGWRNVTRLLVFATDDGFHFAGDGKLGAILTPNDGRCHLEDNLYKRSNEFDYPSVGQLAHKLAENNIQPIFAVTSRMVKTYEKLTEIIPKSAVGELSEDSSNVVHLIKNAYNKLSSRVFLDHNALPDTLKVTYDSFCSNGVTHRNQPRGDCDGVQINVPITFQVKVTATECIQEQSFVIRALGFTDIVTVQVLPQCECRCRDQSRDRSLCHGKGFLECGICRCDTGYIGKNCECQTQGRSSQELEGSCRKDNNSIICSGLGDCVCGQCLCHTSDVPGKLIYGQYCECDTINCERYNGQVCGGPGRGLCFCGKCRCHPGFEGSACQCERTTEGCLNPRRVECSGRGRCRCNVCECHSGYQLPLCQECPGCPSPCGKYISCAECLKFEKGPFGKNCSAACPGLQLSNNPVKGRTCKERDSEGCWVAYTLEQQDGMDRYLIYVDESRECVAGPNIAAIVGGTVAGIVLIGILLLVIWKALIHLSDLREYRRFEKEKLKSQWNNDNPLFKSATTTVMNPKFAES
Kind of test: Static cell adhesion assay, HSB cells on ICAM-1 (LFA-1; LAD). The class given is cell-based. The settings on record: RFU of compound / RFU of THI0349, both at the same concentration. In short, it runs like this: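 HSB cells were labeled with calcein-AM for 30 minutes, washed, resuspended in binding buffer (PBS with 2 mM MgCl2, 5 mM EGTA, 50% FBS) and plated at 2×10^5 cells/well in triplicate onto 96-well plates coated overnight at 4° C with ICAM-1 (5 μg/mL in 50 μL TBS) and blocked with 2% BSA. Compounds were tested in 1% DMSO. After 30 minutes at 37° C and three washes, adherent cells were lysed and fluorescence was read; results are compound RFU divided by THI0349 RFU.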

T1 sequence (P13612 34-1032): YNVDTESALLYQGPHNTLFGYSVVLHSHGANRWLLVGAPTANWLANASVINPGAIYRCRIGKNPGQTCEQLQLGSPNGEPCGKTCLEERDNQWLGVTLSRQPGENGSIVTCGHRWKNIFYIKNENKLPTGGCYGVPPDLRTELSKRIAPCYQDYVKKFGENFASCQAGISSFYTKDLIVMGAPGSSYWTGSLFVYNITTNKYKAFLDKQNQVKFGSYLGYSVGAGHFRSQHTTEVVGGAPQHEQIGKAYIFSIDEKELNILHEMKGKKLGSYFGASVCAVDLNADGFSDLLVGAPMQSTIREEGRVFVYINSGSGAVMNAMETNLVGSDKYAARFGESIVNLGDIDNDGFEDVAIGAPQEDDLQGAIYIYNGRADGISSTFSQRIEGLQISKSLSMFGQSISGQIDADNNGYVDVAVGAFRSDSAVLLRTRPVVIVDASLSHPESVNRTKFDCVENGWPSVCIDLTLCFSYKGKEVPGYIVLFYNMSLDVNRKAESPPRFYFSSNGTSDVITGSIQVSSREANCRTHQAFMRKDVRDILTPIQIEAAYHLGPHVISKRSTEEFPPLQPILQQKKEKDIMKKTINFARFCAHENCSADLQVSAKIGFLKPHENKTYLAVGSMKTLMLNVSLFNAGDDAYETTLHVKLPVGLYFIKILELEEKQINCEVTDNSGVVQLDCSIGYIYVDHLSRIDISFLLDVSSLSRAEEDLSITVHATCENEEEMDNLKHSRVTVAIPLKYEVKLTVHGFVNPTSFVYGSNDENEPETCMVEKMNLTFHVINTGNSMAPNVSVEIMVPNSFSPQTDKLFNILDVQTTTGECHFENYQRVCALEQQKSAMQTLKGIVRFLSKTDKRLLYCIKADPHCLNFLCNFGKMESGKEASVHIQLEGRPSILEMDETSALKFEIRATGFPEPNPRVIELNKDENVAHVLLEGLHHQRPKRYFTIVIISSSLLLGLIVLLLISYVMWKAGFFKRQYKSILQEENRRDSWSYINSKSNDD
T1 sequence (P05556 21-798): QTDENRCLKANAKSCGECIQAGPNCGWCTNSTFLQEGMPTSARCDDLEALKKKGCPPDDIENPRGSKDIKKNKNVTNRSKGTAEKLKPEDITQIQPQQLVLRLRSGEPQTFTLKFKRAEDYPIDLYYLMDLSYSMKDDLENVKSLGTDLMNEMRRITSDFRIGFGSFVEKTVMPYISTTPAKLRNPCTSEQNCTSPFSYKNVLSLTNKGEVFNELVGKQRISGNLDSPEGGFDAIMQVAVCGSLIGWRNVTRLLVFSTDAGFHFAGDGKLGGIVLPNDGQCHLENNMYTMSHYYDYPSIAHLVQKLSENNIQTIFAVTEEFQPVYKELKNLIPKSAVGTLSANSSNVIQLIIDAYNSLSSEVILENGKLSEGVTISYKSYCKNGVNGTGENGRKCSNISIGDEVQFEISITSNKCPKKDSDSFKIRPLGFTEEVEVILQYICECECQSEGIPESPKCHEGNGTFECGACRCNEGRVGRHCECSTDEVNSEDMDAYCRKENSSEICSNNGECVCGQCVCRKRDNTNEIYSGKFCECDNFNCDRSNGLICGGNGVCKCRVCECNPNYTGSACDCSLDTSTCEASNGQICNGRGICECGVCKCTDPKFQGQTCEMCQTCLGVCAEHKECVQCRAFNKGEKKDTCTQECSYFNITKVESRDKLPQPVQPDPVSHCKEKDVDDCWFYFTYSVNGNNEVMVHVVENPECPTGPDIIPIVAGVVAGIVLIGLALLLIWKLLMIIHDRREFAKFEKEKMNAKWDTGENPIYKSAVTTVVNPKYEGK

Consider `COc1cccc(CN(Cc2cccc(OC)c2)c2nc(COCCOCCOCc3ccccc3C)cs2)c1` [Compound 54, N,N-bis(3-methoxybenzyl)-4-((2-(2-((2-methylbenzyl)oxy)ethoxy)ethoxy)methyl)thiazol-2-amine], for which the “Group against VCAM” value in test [1] was “I (Group I maintains at least the same potency or better up to more than twice that of the EC50 of THI0349 ran on the same plate)”. In addition, the “LAD Raw Fluorescence Units against LFA-1; Dose 3 µM; Ratio of raw counts Compound/THI0349” value in test [2] was 1.8.
The corresponding values for `COc1cccc(COCCOCCOCc2csc(N(Cc3cccc(OC)c3)Cc3cccc(OC)c3)n2)c1` [Compound 55, N,N-bis(3-methoxybenzyl)-4-((2-(2-((3-methoxybenzyl)oxy)ethoxy)ethoxy)methyl)thiazol-2-amine] are “I (Group I maintains at least the same potency or better up to more than twice that of the EC50 of THI0349 ran on the same plate)” and 1.1.
The corresponding values for `CCOC(=O)c1coc(N(Cc2ccc(OC)cc2)Cc2ccc(OC)cc2)n1` [Compound 15, ethyl 2-(bis(4-methoxybenzyl)amino)oxazole-4-carboxylate] are “III (Group III more than five times the EC50 of THI0349)” and 0.52.
On the same counts, the results for `CCOC(=O)c1csc(N(Cc2cccc(OC)c2)Cc2cccc(OC)c2)n1` [Compound 102, ethyl 2-(bis(3-methoxybenzyl)amino)thiazole-4-carboxylate] are “II (Group II is more than twice that of THI0349 but less than five times THI0349's EC50)” and 0.5.
For `COc1cccc(COc2cc(C)n(N(Cc3cccc(OC)c3)Cc3cccc(OC)c3)c(=O)c2)c1` [Compound 127, 1-(bis(3-methoxybenzyl)amino)-4-((3-methoxybenzyl)oxy)-6-methylpyridin-2(1H)-one], the “Group against VCAM” value in test [1] is recorded as “II (Group II is more than twice that of THI0349 but less than five times THI0349's EC50)”. Further, in test [2], the “LAD Raw Fluorescence Units against LFA-1; Dose 3 µM; Ratio of raw counts Compound/THI0349” value is recorded as 0.75.
On the same counts, the results for `COc1cccc(CN(Cc2cccc(OC)c2)c2nc(COCCOc3ccc(N(C)C)cc3)cs2)c1` [Compound 51, 4-((2-(4-(dimethylamino)phenoxy)ethoxy)methyl)-N,N-bis(3-methoxybenzyl)thiazol-2-amine] are “III (Group III more than five times the EC50 of THI0349)” and 1.3.
As for `COc1cccc(COCc2cccc(N(Cc3cccc(OC)c3)Cc3cccc(OC)c3)c2)c1` [Compound 90, N,N-bis(3-methoxybenzyl)-3-(((3-methoxybenzyl)oxy)methyl)aniline], in test [1], the “Group against VCAM” value is “III (Group III more than five times the EC50 of THI0349)”. Besides, the “LAD Raw Fluorescence Units against LFA-1; Dose 3 µM; Ratio of raw counts Compound/THI0349” value in test [2] was 0.09.
On the same counts, the results for `COc1cccc(CN(Cc2cccc(OC)c2)c2nc(CN3CCCCC3)cs2)c1` [Compound 68, N,N-bis(3-methoxybenzyl)-4-(piperidin-1-ylmethyl)thiazol-2-amine] are “II (Group II is more than twice that of THI0349 but less than five times THI0349's EC50)” and 1.6.
Consider `COc1cccc(CN(Cc2ccc3ncccc3c2)c2nc(CN3CCOCC3)cs2)c1` [Compound 76, N-(3-methoxybenzyl)-4-(morpholinomethyl)-N-(quinolin-6-ylmethyl)thiazol-2-amine], for which the “Group against VCAM” value in test [1] is listed as “II (Group II is more than twice that of THI0349 but less than five times THI0349's EC50)”. The “LAD Raw Fluorescence Units against LFA-1; Dose 3 µM; Ratio of raw counts Compound/THI0349” value in test [2] amounted to 0.31.
As for `COc1cccc(CN(Cc2cccc(OC)c2)c2nc(COCCOCCOCc3ccccc3Cl)cs2)c1` [Compound 56, 4-((2-(2-((2-chlorobenzyl)oxy)ethoxy)ethoxy)methyl)-N,N-bis(3-methoxybenzyl)thiazol-2-amine], the “Group against VCAM” value in test [1] is listed as “III (Group III more than five times the EC50 of THI0349)”. Moreover, in test [2], the “LAD Raw Fluorescence Units against LFA-1; Dose 3 µM; Ratio of raw counts Compound/THI0349” value is 1.2.
Take `COc1cccc(CN(Cc2cccc(OC)c2)c2nc(COCCN3CCN(C)CC3)cs2)c1` [Compound 66, N,N-bis(3-methoxybenzyl)-4-((2-(4-methylpiperazin-1-yl)ethoxy)methyl)thiazol-2-amine]: the “Group against VCAM” value in test [1] is reported as “II (Group II is more than twice that of THI0349 but less than five times THI0349's EC50)”. Also, the “LAD Raw Fluorescence Units against LFA-1; Dose 3 µM; Ratio of raw counts Compound/THI0349” value in test [2] is listed as 0.27.
On the same counts, the results for `COc1cccc(CN(Cc2ccc(-n3cccn3)cc2)c2nc(CN3CCOCC3)cs2)c1` [Compound 75, N-(4-(1H-pyrazol-1-yl)benzyl)-N-(3-methoxybenzyl)-4-(morpholinomethyl)thiazol-2-amine] are “I (Group I maintains at least the same potency or better up to more than twice that of the EC50 of THI0349 ran on the same plate)” and 0.59.
The corresponding values for `CCOC(=O)c1csc(N(Cc2ccc(-n3ccnc3)cc2)Cc2cccc(OC)c2)n1` [Compound 113, ethyl 2-((4-(1H-imidazol-1-yl)benzyl)(3-methoxybenzyl)amino)thiazole-4-carboxylate] are “II (Group II is more than twice that of THI0349 but less than five times THI0349's EC50)” and 0.64.
The corresponding values for `COc1cccc(COCc2csc(N(Cc3cccc(OC)c3)Cc3cccc(OC)c3)n2)c1` [Compound 38, N,N-bis(3-methoxybenzyl)-4-((3-methoxybenzyloxy)methyl)thiazol-2-amine] are “III (Group III more than five times the EC50 of THI0349)” and 0.16.
With `COc1cccc(CN(Cc2cccc(N3CCOCC3)c2)c2nc(CN3CCOCC3)cs2)c1` [Compound 78, N-(3-methoxybenzyl)-N-(3-morpholinobenzyl)-4-(morpholinomethyl)thiazol-2-amine], in test [1], the “Group against VCAM” value is “II (Group II is more than twice that of THI0349 but less than five times THI0349's EC50)”. Further, the “LAD Raw Fluorescence Units against LFA-1; Dose 3 µM; Ratio of raw counts Compound/THI0349” value in test [2] came to 0.4.
On the same counts, the results for `COc1cccc(CN(Cc2cccc(OC)c2)c2nc(CCN3CCOCC3)cs2)c1` [Compound 84, N,N-bis(3-methoxybenzyl)-4-(2-morpholinoethyl)thiazol-2-amine] are “I (Group I maintains at least the same potency or better up to more than twice that of the EC50 of THI0349 ran on the same plate)” and 0.14.
The corresponding values for `COc1cccc(CN(Cc2cccc(OC)c2)c2nc(C)cs2)c1` [Compound 29, N,N-bis(3-methoxybenzyl)-4-methylthiazol-2-amine] are “III (Group III more than five times the EC50 of THI0349)” and 0.88.
On the same counts, the results for `COc1cccc(COc2ccc(N(Cc3cccc(OC)c3)Cc3cccc(OC)c3)cc2)c1` [Compound 91, N,N-bis(3-methoxybenzyl)-4-((3-methoxybenzyl)oxy)aniline] are “III (Group III more than five times the EC50 of THI0349)” and 0.09.
As for `COc1cccc(CN(Cc2ccc(-n3cccn3)cc2)c2nc(C)cs2)c1` [Compound 98, N-(4-(1H-pyrazol-1-yl)benzyl)-N-(3-methoxybenzyl)-4-methylthiazol-2-amine], the “Group against VCAM” value in test [1] is “III (Group III more than five times the EC50 of THI0349)”. The “LAD Raw Fluorescence Units against LFA-1; Dose 3 µM; Ratio of raw counts Compound/THI0349” value in test [2] came to 0.03.
On the same counts, the results for `COc1cccc(CN(Cc2cccc(OC)c2)c2nc(COCCN3CCOCC3)co2)c1` [Compound 87, N,N-bis(3-methoxybenzyl)-4-((2-morpholinoethoxy)methyl)oxazol-2-amine] are “I (Group I maintains at least the same potency or better up to more than twice that of the EC50 of THI0349 ran on the same plate)” and 0.2.
On the same counts, the results for `COc1cccc(CN(Cc2cccc(OC)c2)c2nc(COCCOCCOc3ccc(Cl)cc3)cs2)c1` [Compound 44, 4-((2-(2-(4-chlorophenoxy)ethoxy)ethoxy)methyl)-N,N-bis(3-methoxybenzyl)thiazol-2-amine] are “I (Group I maintains at least the same potency or better up to more than twice that of the EC50 of THI0349 ran on the same plate)” and 0.77.
The corresponding values for `COc1ccc(CCCOCc2csc(N(Cc3cccc(OC)c3)Cc3cccc(OC)c3)n2)cc1` [Compound 39, N,N-bis(3-methoxybenzyl)-4-((3-(4-methoxyphenyl)propoxy)methyl)thiazol-2-amine] are “III (Group III more than five times the EC50 of THI0349)” and 0.23.
